According to patent publication US9399666B2, “Inhibiting interaction between the HIF-1ALPHA and p300/CBP with hydrogen bond surrogate-based helices” (New York University, priority 2008, dated 2016):
Peptide text beside a SMILES is read from it.

Legend:
p300 = p300 (Homo sapiens, UniProt Q09472); assay: Affinity for p300 by isothermal titration calorimetry; format: binding; conditions: for Kd: isothermal titration calorimetry, p300, read-out: Kd (ITC)
Text: Helix αA of HIF-1α C-TAD, shown in FIG. 1A and FIG. 1C, is critical for the interaction between the CH1 domain and HIF-1α, because mutation of its residues or hydroxylation of Asn803 is known to disrupt this complex and inhibit HIF-1α mediated transcription (Freedman et al., “Structural Basis for Recruitment of CBP/p300 by Hypoxia-inducible Factor-1α,” Proc. Nat'l Acad. Sci. USA 99:5367-72 (2002); Dames et al., “Structural Basis for Hif-1α/CBP Recognition in the Cellular Hypoxic Response,” Proc. Nat'1 Acad. Sci. USA 99:5271-6 (2002). Development of HBS helices as potential inhibitors of VEGF transcription was begun by mimicking the aA helix region of HIF-1. This helix consists of eight residues, […] (SEQ ID NO: 111), and features three residues, Asp-Cys-Glu, critical for binding with p300/CBP. Several linear peptides and their HBS α-helix analogs were designed to gauge the potential of these molecules to inhibit VEGF transcription in cell culture. Each unconstrained peptide and HBS helix was synthesized using the procedures described in (Dimartino et al., “Solid-phase Synthesis of Hydrogen-bond Surrogate-derived α-Helices,” Org. Lett. 7:2389-92 (2005); Chapman & Arora, “Optimized Synthesis of Hydrogen-bond Surrogate Helices: Surprising Effects of Microwave Heating on the Activity of Grubbs Catalysts,” Org. Lett. 8:5825-8 (2006)). The percent helicity of each peptide was determined using circular dichroism spectroscopy in 10 mM phosphate buffered saline as described in (Wang et al., “Evaluation of Biologically Relevant Short α-Helices Stabilized by a Main-chain Hydrogen-bond Surrogate,” J. Am. Chem. Soc. 128:9248-56 (2006)). The affinity of each peptide for p300 was measured by isothermal titration calorimetry analysis (Wiseman et al., “Rapid Measurement of Binding Constants and Heats of Binding Using a New Titration calorimeter,” Anal. Biochem. 179:131-7 (1989); Freire et al., “Isothermal Titration calorimetry,” Anal. Chem. 62:A950-A959 (1990); Chervenak & Toone, “Calorimetric Analysis of the Binding of Lectins with Overlapping Carhohydrate-binding Ligand Specificities,” Biochemistry 34:5685-95 (1995); Aki et al., “Competitive Binding of Drugs to the Multiple Binding Sites on Human Serum Albumin. A calorimetric Study,” J Thermal Anal. calorim. 57:36170 (1999); Graziano et al., “Linkage of Proton Binding to the Thermal Unfolding of Sso7d from the Hyperthermophilic Archaebacterium Sulfolobus solfataricus,” Int'l J. Biol. Macromolecules 26:45-53 (1999); Pluschke & Mutz, “Use of Isothermal Titration calorimetry in the Development of Molecularly Defined Vaccines,” J Thermal Anal. calorim. 57:377-88 (1999); Corbell et al., “A Comparison of Biological and calorimetric Analyses of Multivalent Glycodendrimer Ligands for Concanavalin A,” Tetrahedron-Asymmetry 11:95-111 (2000)). The ability of each peptide to downregulate VEGF transcription in cell culture was evaluated by […] quantitative RT-PCR, as described above. The cytotoxicity of each peptide was determined by monitoring cellular growth and population doubling in the presence of individual peptides at 1μM concentration.

circular dichroism = conditions: 10 mM phosphate buffered saline (par. 0128, each peptide; pH given only for 22 and 25, Fig 6B), pH 7.4, ns °C
[1] = Percent helicity by circular dichroism spectroscopy; format: physicochemical; conditions: for % Helicity: 10 mM phosphate buffered saline
Text: Helix αA of HIF-1α C-TAD, shown in FIG. 1A and FIG. 1C, is critical for the interaction between the CH1 domain and HIF-1α, because mutation of its residues or hydroxylation of Asn803 is known to disrupt this complex and inhibit HIF-1α mediated transcription (Freedman et al., “Structural Basis for Recruitment of CBP/p300 by Hypoxia-inducible Factor-1α,” Proc. Nat'l Acad. Sci. USA 99:5367-72 (2002); Dames et al., “Structural Basis for Hif-1α/CBP Recognition in the Cellular Hypoxic Response,” Proc. Nat'1 Acad. Sci. USA 99:5271-6 (2002). Development of HBS helices as potential inhibitors of VEGF transcription was begun by mimicking the aA helix region of HIF-1. This helix consists of eight residues, […] (SEQ ID NO: 111), and features three residues, Asp-Cys-Glu, critical for binding with p300/CBP. Several linear peptides and their HBS α-helix analogs were designed to gauge the potential of these molecules to inhibit VEGF transcription in cell culture. Each unconstrained peptide and HBS helix was synthesized using the procedures described in (Dimartino et al., “Solid-phase Synthesis of Hydrogen-bond Surrogate-derived α-Helices,” Org. Lett. 7:2389-92 (2005); Chapman & Arora, “Optimized Synthesis of Hydrogen-bond Surrogate Helices: Surprising Effects of Microwave Heating on the Activity of Grubbs Catalysts,” Org. Lett. 8:5825-8 (2006)). The percent helicity of each peptide was determined using circular dichroism spectroscopy in 10 mM phosphate buffered saline as described in (Wang et al., “Evaluation of Biologically Relevant Short α-Helices Stabilized by a Main-chain Hydrogen-bond Surrogate,” J. Am. Chem. Soc. 128:9248-56 (2006)). The affinity of each peptide for p300 was measured by isothermal titration calorimetry analysis (Wiseman et al., “Rapid Measurement of Binding Constants and Heats of Binding Using a New Titration calorimeter,” Anal. Biochem. 179:131-7 (1989); Freire et al., “Isothermal Titration calorimetry,” Anal. Chem. 62:A950-A959 (1990); Chervenak & Toone, “Calorimetric Analysis of the Binding of Lectins with Overlapping Carhohydrate-binding Ligand Specificities,” Biochemistry 34:5685-95 (1995); Aki et al., “Competitive Binding of Drugs to the Multiple Binding Sites on Human Serum Albumin. A calorimetric Study,” J Thermal Anal. calorim. […] The ability of each peptide to downregulate VEGF transcription in cell culture was evaluated by […] quantitative RT-PCR, as described above. The cytotoxicity of each peptide was determined by monitoring cellular growth and population doubling in the presence of individual peptides at 1μM concentration.

MDA-MB-231-HRE-Luc cells = format: cell-based
Procedure: MDA-MB-231-HRE-Luc cells were maintained in high glucose Dulbecco's Modified Eagle's Medium (“DMEM”) supplemented with 10% fetal bovine serum and 0.4 g/L Geneticin (G418 sulfate, RPI Corporation). Cells were plated in 24-well dishes (BD Falcon) at a density of […] using 1 mL of a 6.5×10^4 cell/mL suspension. […] Cells were incubated for 6 hours at 37° C. in a humidified atmosphere with 5% CO2. Hypoxia was induced by adding desferoxamine mesylate (DFO, Sigma) to a final concentration of 300 μM, and cells were incubated for an additional 18 hours. Whole cell lysates were isolated by washing the cells twice with ice cold PBS and then adding 150 μL of Cell Culture Lysis Reagent (“CCLR,” Promega). Lysate was collected, centrifuged at 13,000 rpm at 4° C., aliquoted, and stored at −80° C. Luciferase assays were conducted according to the manufacturer's instructions (Promega) using a Turner TD-20e Luminometer. Relative light intensity measurements were normalized by performing a Bradford assay to determine the protein content of the lysate used in the luciferase assay. Briefly, 50 μL of cell lysate/luciferase assay reagent mix was added to 200 μL of Bradford reagent and 750 μL of Millipore water in a 1.5 mL cuvette. Protein standards were created in the range of 1 μg/mL to 10 μg/mL with the appropriate amount of a 1 mg/mL BSA solution. Absorbance was measured at 595 nm using a DU-800 spectrophotometer. The experiments were carried out in triplicate with the error bars calculated as standard error of the mean.

experimental animals = conditions: cited from earlier work
[2] = tested on: VEGF transcription in HeLa cells; assay: VEGF gene expression by real-time qRT-PCR; format: cell-based; conditions: FIG. 7
Text: Real-time qRT-PCR was used to determine the effect of HBS helices on the level of expression of VEGF and GLUT1 genes in HeLa and MCF-7 cells, both under normoxic and hypoxic conditions. For VEGF analysis, the forward primer 5′AGGCCAGCACATAGGAGAGA-3′ (SEQ ID NO: 105) and reverse primer 5′TTTCCCTTTCCTCGAACTGA-3′ (SEQ ID NO:106) were used to amplify a 104-bp fragment from the […] of the gene. For GLUT1 (SLC2A1) analysis, the following sequences were utilized to yield a product of 179 bp: forward sequence 5′-TAGAAACATGGTTTTGAAATGC-3′ (SEQ ID NO:107), reverse sequence 5′-GGTAACAGGGATCAAACAGATT-3′ (SEQ ID NO:108). The levels of expression of β-glucuronidase were used as endogenous controls, since they remain unchanged under experimental conditions. The forward primer 5′-CTCATTTGGAATTTTGCCGATT-3′ (SEQ ID NO:109) and reverse primer 5′-CCGAGTGAAGATCCCCTTTTTA-3′ (SEQ ID NO:110) were used for this gene. Temperature cycling and detection of the SYBR green emission were performed with an ABI 7300 real-time PCR instrument. Data were analyzed with ABI Sequence Detection System, version 1.2. Statistical analysis was performed with the data from six independent experiments. The experiment was performed with Applied Biosystems SYBR Green RT-PCR master mix.

Row | Compound | Kd (p300) | helicity (circular dichroism) | % Helicity [1] | other results
1 | C[C@H](NC(=O)[C@H](CC(N)=O)NC(=O)[C@H](Cc1ccc(O)cc1)NC(=O)[C@H](CCC(=O)O)NC(=O)[C@H](CS)NC(=O)[C@H](CC(=O)O)NC(=O)[C@H](C)N1CC=CCCC(=O)N[C@@H]([C@@H](C)O)C(=O)N[C@@H](C)C1=O)C(=O)N[C@@H](CCCNC(=N)N)C(N)=O [Compound 22] | 420 ± 35 nM | 53% |  | 
2 | CC(=O)N[C@H](C(=O)N[C@@H](C)C(=O)N[C@@H](Cc1ccc(O)cc1)C(=O)N[C@@H](CC(=O)O)C(=O)N[C@@H](CS)C(=O)N[C@@H](CCC(=O)O)C(=O)N[C@H](C(=O)N[C@@H](CC(N)=O)C(=O)N[C@@H](C)C(N)=O)C(C)C)[C@@H](C)O [Compound 24] (Ac-TAYDCEVNA-NH2) |  | 15% | 15% | Affinity for p300 (in words) (p300; ITC): bound p300 with significant affinities; Inhibition of VEGF transcription in cell culture (in words) (MDA-MB-231-HRE-Luc cells; cell culture): failed to inhibit VEGF transcription in cell culture; % Transcription inhibition in cell culture (Luc) (MDA-MB-231-HRE-Luc cells; luciferase assay, 1 μM peptide): 15 ± 5%
3 | CN1C(=O)[C@@]23C[C@]4([C@]56C[C@@]78SS[C@@](CO)(C(=O)N7[C@H]5Nc5ccccc56)N(C)C8=O)c5ccccc5N[C@@H]4N2C(=O)[C@]1(CO)SS3 [chaetocin 1, chaetocin] |  |  |  | Side effects in experimental animals (experimental animals): induced coagulative necrosis, anemia, and leukocytosis
4 | CC(=O)NCC(=O)N[C@H](C(=O)N[C@@H](C)C(=O)N[C@@H](C)C(=O)N[C@@H](CC(=O)O)C(=O)N[C@@H](CS)C(=O)N[C@@H](CCC(=O)O)C(=O)N[C@@H](Cc1ccc(O)cc1)C(=O)N[C@@H](CC(N)=O)C(=O)N[C@@H](C)C(=O)N[C@@H](CCCNC(=N)N)C(N)=O)[C@@H](C)O [Compound 25] (Ac-GTAADCEYNAR-NH2) |  | 15% | 15% | Inhibition of VEGF transcription in HeLa cells (in words) [2]: negligible effect; Helical content (in words) [1]: appears to be unstructured; % Transcription inhibition in cell culture (Luc & RT-PCR) (MDA-MB-231-HRE-Luc cells; luciferase assay and qRT-PCR, 1 μM peptide): 8 ± 3%
5 | CC(C)[C@H](NC(=O)[C@H](CCC(=O)O)NC(=O)[C@@H](NC(=O)[C@H](CC(=O)O)NC(=O)[C@H](Cc1ccc(O)cc1)N1CC=CCCC(=O)N[C@@H]([C@@H](C)O)C(=O)N[C@@H](C)C1=O)C(C)C)C(=O)N[C@@H](CC(N)=O)C(=O)N[C@@H](C)C(N)=O [Compound 21] | 690 ± 60 nM | 16% |  | 
